Several values for one entry are separate records, joined by “and”; a condition that tells them apart may be missing. Equal entries are not always repeated.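 Grown in 96-well plates, cells were treated for 48 hours with each compound at five concentrations. Insufficient inhibition: endpoint recorded as highest concentration tested. At the GI50, growth is halved. TGI marks complete inhibition of growth.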
Experiments:
Experiment in all cases: NCI anticancer screen, dose series, 48 h
[1] = tested on: UO-31 renal
[2] = tested on: MOLT-4 leukemia
[3] = tested on: 786-0 renal
[4] = tested on: HOP-92 NSCLC
[5] = tested on: SF-295 CNS
[6] = tested on: K-562 leukemia
[7] = tested on: SK-OV-3 ovarian
[8] = tested on: SK-MEL-2 melanoma
[9] = tested on: KM12 colon
[10] = tested on: MDA-MB-231 breast

Structure (SMILES) | TGI [1] | TGI [2] [µM] | TGI [3] | TGI [4] | TGI [5] | TGI [6] | TGI [7] | GI50 [1] [µM] | GI50 [3] [µM] | GI50 [4] [µM] | GI50 [8] [µM] | TGI [8] | GI50 [5] [µM] | GI50 [6] [µM] | GI50 [9] [µM] | TGI [9] | GI50 [7] [µM] | GI50 [10] [µM] | TGI [10] [µM] | GI50 [2] [µM]
CC(C)N(C(=O)C12C3C4C1C1C2C3C41C(O)C(C)(C)C)C(C)C (stereo not given) | > 50 µM | > 50 | > 50 µM | > 50 µM | > 50 µM | > 50 µM | > 50 µM |  |  |  |  |  |  |  |  |  |  |  |  | 
COc1cc(Nc2ccnc(N3CCN(c4ccnc5cc(Cl)ccc45)CC3)n2)cc(OC)c1 | > 30.7 µM |  | 4.6 µM | 6.61 µM | 2.13 µM | > 100 µM | > 36.3 µM | 0.938 | 1.6 | 0.431 | 0.738 | 4.02 µM | 0.289 | 0.432 | 0.101 | > 100 µM | 3.17 | 0.567 | > 100 | 
CC[O-].CC[O-].O=C1C(=C([O-])c2ccccc2)C(=O)c2ccccc21.O=C1C(=C([O-])c2ccccc2)C(=O)c2ccccc21.[Ti+4] | > 100 µM | > 100 | > 100 µM | > 100 µM | > 100 µM | > 100 µM |  | > 100 | > 100 | 95.1 | 66.3 | > 100 µM | 98.4 | > 100 |  |  |  |  |  | > 100
COc1ccc([C@H]2CC(=O)N3CCCC3N2)cc1 (stereo not given in full) | > 100 µM | > 100 | > 100 µM | > 100 µM | > 100 µM | > 100 µM | > 100 µM |  |  |  |  | > 100 µM |  |  |  | > 100 µM |  |  |  | 
Cc1cc2c(C(C)C)c(O)c(O)c(C=Nc3cc(C(F)(F)F)ccc3Cl)c2c(O)c1-c1c(C)cc2c(C(C)C)c(O)c(O)c(C=Nc3cc(C(F)(F)F)ccc3Cl)c2c1O | > 100 µM |  | > 100 µM | 53.5 µM |  | > 100 µM | 54 µM |  |  |  |  | 80.8 µM |  |  |  | 92.4 µM |  |  | > 100 | 
CC(=O)N(CCN)CCN | > 10 µM | > 10 | > 10 µM | > 10 µM | > 10 µM | > 10 µM | > 100 µM |  |  |  |  | > 100 µM |  |  |  | > 10 µM |  |  |  | 
C=C(C)C1CC2C(C)=C(OC(C)=O)C1n1c(=O)c3cc4ccccc4cc3c(=O)n12 (stereo not given) | > 100 µM | > 100 | > 100 µM | > 100 µM | > 100 µM | > 100 µM | > 100 µM |  |  |  |  | > 100 µM |  |  |  | > 100 µM |  |  |  | 
O=C(CC(C(=O)c1cccs1)c1ccc2c(c1)OCO2)c1ccc(Br)cc1 (stereo not given) | > 100 µM | > 100 | > 100 µM |  | > 100 µM | > 100 µM | > 100 µM |  |  |  |  |  |  |  |  | > 100 µM |  |  | > 100 | 
COc1cc(C2c3cc4c(cc3[C@@H](Nc3ccc(N(C)C)cc3)[C@H]3COC(=O)C23)OCO4)cc(OC)c1O (stereo not given in full) | 3.27 µM and 6.69 µM |  | 1.37 µM and 4.91 µM | 11.4 µM and 17 µM | 0.483 µM and 1.47 µM | 75 µM and 36.8 µM | 2.23 µM and 5.72 µM | 1.47 | 0.362 | 0.807 | 3.58 | 9.12 µM and 12 µM | 0.223 | 2.41 | 3.34 | 4.49 µM and 14.3 µM | 0.279 |  |  | < 0.0075
CC12CC3(C)CC(C)(C1)CC(N=[N+]=[N-])(C2)C3 | > 100 µM | > 100 | > 100 µM | > 100 µM | > 100 µM | > 100 µM | > 100 µM |  |  |  |  | > 100 µM |  |  |  | > 100 µM |  |  |  | 
Cc1cc(O)c2c(c1)C(O)(c1ccc3c(c1O)C(=O)c1c(O)cc(C)cc1C3(O)C1OC(CO)C(O)C(O)C1O)c1cccc(O)c1C2=O (stereo not given) | 32 µM | 32.6 | 29.2 µM | 20.4 µM | 24.9 µM | 18.9 µM | 31.4 µM |  |  |  |  |  |  |  |  | 24 µM |  |  |  | 
Cc1cc(Cl)ccc1NC(=O)C(=O)Cc1nc2ccc(C(=O)c3ccccc3)cc2[nH]c1=O | > 100 µM | > 100 | > 100 µM | > 100 µM | > 100 µM |  | > 100 µM |  |  |  |  | > 100 µM |  |  |  | > 100 µM |  |  |  | 
C/C(=N/N(C=O)C[n+]1ccccc1)C(CN(CC(C)C)CC(C)C)C(=O)Nc1ccc(C)cc1C (stereo not given) | 84.3 µM | > 100 | > 100 µM | > 100 µM | > 100 µM | > 100 µM | > 100 µM |  |  |  |  | > 100 µM |  |  |  | > 100 µM |  |  |  | 
O=C(c1ccccc1)c1c(CC(O)c2cccnc2)n(C(=O)c2ccccc2)c2ccccc12 (stereo not given) | 32.6 µM | 47.7 | 99.4 µM | 30.9 µM | 35.6 µM | 75.7 µM |  |  |  |  |  | 35.8 µM |  |  |  | 36.3 µM |  |  |  | 
Cc1cc(C)c2c(c1)CN1CN2Cc2cc(C)cc(C)c21 | 43.5 µM | 63.1 | 34.7 µM |  | 37.4 µM | > 100 µM | 86.5 µM |  |  |  |  |  |  |  |  | 37.1 µM |  |  |  | 
O=c1oc2ccccc2c(O)c1C=NC(=S)c1ccncc1 | > 100 µM | > 100 | > 100 µM | > 100 µM | > 100 µM |  | > 100 µM |  |  |  |  | > 100 µM |  |  |  | > 100 µM |  |  | > 100 | 
N=C(N)SCc1cn2ccccc2n1 | > 100 µM | > 100 | > 100 µM |  | > 100 µM | > 100 µM |  |  |  |  |  | > 100 µM |  |  |  | > 100 µM |  |  |  | 
Cn1cc(C2=C(c3cn(C)c4ccc(N)cc34)C(=O)NC2=O)c2ccccc21 | > 25 µM | > 25 | > 25 µM |  | > 22.2 µM | > 25 µM | > 25 µM | 3.6 | 19.7 |  | 8.46 | > 25 µM | 6.83 | 1.92 | 6.4 | > 25 µM | 8.99 | > 25 | > 25 | 10.2
O=C(CCc1nc(=S)[nH][nH]1)NC12CC3CC(CC(C3)C1)C2 | > 100 µM |  | > 100 µM | > 100 µM | > 100 µM | > 100 µM | > 100 µM |  |  |  |  | > 100 µM |  |  |  | > 100 µM |  |  |  | 
